Experiments:
[1] = test system: antibodies in sera from SARS patients (sera 1a, 1b, 2, 6, 37, 62, London, SARS-yellow, SARS-green); type: binding, human; parameters: Binding of serum 6 to linear peptides of protein X1 of SARS-CoV Urbani / Binding of serum 37 to linear peptides of protein X1 of SARS-CoV Urbani / Binding of serum 6 to looped/cyclic peptide (PEPSCAN-ELISA) / Binding of serum 37 to looped/cyclic peptide (PEPSCAN-ELISA) / Binding of serum 37 to looped/cyclic peptides of protein X1 of SARS-CoV Urbani / Binding of serum 6 to linear peptides of protein X2 / Binding of serum 37 to linear peptides of protein X2 / Binding of serum 37 to looped/cyclic peptides of protein X2 of SARS-CoV Urbani / Binding of serum 6 to linear peptides of protein M of SARS-CoV Urbani / Binding of serum 37 to linear peptides of protein M of SARS-CoV Urbani / Binding of serum 6 to looped/cyclic peptides of protein M of SARS-CoV Urbani / Binding of serum 37 to looped/cyclic peptides of protein M of SARS-CoV Urbani / Binding of serum 6 to linear peptides of protein X3 of SARS-CoV Urbani / Binding of serum 37 to linear peptides of protein X3 of SARS-CoV Urbani / Binding of serum 37 to looped/cyclic peptides of protein X3 of SARS-CoV Urbani / Binding of serum 6 to linear peptides of protein X4 of SARS-CoV Urbani / Binding of serum 37 to linear peptides of protein X4 of SARS-CoV Urbani / Binding of serum 37 to looped/cyclic peptides of protein X4 of SARS-CoV Urbani / Binding of serum 6 to linear peptides of protein X5 of SARS-CoV Urbani / Binding of serum 37 to linear peptides of protein X5 of SARS-CoV Urbani / Binding of serum 37 to looped/cyclic peptides of protein X5 of SARS-CoV Urbani / Binding of serum 6 to linear peptides of protein N of SARS-CoV Urbani / Binding of serum 37 to linear peptides of protein N of SARS-CoV Urbani / Binding of serum 6 to linear peptide (PEPSCAN-ELISA) / Binding of serum 1a to looped/cyclic peptides of protein N of SARS-CoV Urbani / Binding of serum 1b to looped/cyclic peptides of protein N of SARS-CoV Urbani / Binding of serum 2 to looped/cyclic peptides of protein N of SARS-CoV Urbani / Binding of serum 6 to looped/cyclic peptides of protein N of SARS-CoV Urbani / Binding of serum 37 to looped/cyclic peptides of protein N of SARS-CoV Urbani / Binding of serum 62 to looped/cyclic peptides of protein N of SARS-CoV Urbani / Binding of serum London to looped/cyclic peptides of protein N of SARS-CoV Urbani / Binding of serum SARS-green to looped/cyclic peptides of protein N of SARS-CoV Urbani: unit not given here
[2] = test system: rabbit serum obtained by immunizing a rabbit with the SARS-CoV strain Frankfurt 1; type: binding; parameters: Binding of a rabbit serum to linear peptides / Binding of a rabbit serum to looped peptides / Rabbit serum linear peptides / Rabbit serum looped peptides / Binding of a rabbit serum to linear peptides of protein N of SARS-CoV Urbani (Rabbit serum linear peptides) / Binding of a rabbit serum to looped/cyclic peptides of protein N of SARS-CoV Urbani (Rabbit serum looped peptides): unit not given here
[3] = test system: recombinant human anti-SARS-CoV antibody 03-018; type: binding; parameters: Binding of antibody 03-018 to linear peptides of the N protein of SARS-CoV Urbani / Binding of antibody 03-018 to looped/cyclic peptides of the N protein of SARS-CoV Urbani: unit not given here
[4] = test system: control sera (pooled serum of ten healthy LUMC hospital workers; commercial negative donor pooled serum from the Dutch bloodbank); type: binding, human; parameters: Binding of Control serum LUMC to linear peptides / Binding of Control serum Blood-bank to linear peptides / Binding of Control serum LUMC to looped peptides / Binding of Control Serum Blood-Bank to Looped peptides / Binding of Control serum LUMC to linear peptides of the protein M of SARS-CoV Urbani / Binding of Control serum Blood-bank to linear peptides of the protein M of SARS-CoV Urbani / Binding of Control serum LUMC to looped peptides of the protein M of SARS-CoV Urbani / Binding of Control Serum Blood-Bank to Looped peptides of the protein M of SARS-CoV Urbani: unit not given here

Sequence | Binding of serum 1a to looped/cyclic peptides of protein N of SARS-CoV Urbani [1] | Binding of serum 1b to looped/cyclic peptides of protein N of SARS-CoV Urbani [1] | Binding of serum 2 to looped/cyclic peptides of protein N of SARS-CoV Urbani [1] | Binding of serum 6 to looped/cyclic peptides of protein N of SARS-CoV Urbani [1] | Binding of serum 37 to looped/cyclic peptides of protein N of SARS-CoV Urbani [1] | Binding of serum 62 to looped/cyclic peptides of protein N of SARS-CoV Urbani [1] | Binding of serum London to looped/cyclic peptides of protein N of SARS-CoV Urbani [1] | Binding of serum SARS-green to looped/cyclic peptides of protein N of SARS-CoV Urbani [1] | Binding of serum SARS-yellow to looped/cyclic peptides of protein N of SARS-CoV Urbani [1] | Binding of a rabbit serum to linear peptides of protein N of SARS-CoV Urbani (Rabbit serum linear peptides) [2] | Binding of a rabbit serum to looped/cyclic peptides of protein N of SARS-CoV Urbani (Rabbit serum looped peptides) [2] | Binding of antibody 03-018 to linear peptides of the N protein of SARS-CoV Urbani [3] | Binding of antibody 03-018 to looped/cyclic peptides of the N protein of SARS-CoV Urbani [3] | other results
ETALALLLLDRLNQL | 0.4 | 0.3 | 0.4 | 0.2 | 0.7 | 0.6 | 0.5 | 0.4 | 0.5 | 0.4 | 0.6 | 0.1 | 0.3 | Binding of serum 1a to linear peptide (PEPSCAN-ELISA) [1]: 0.2; Binding of serum 1b to linear peptide (PEPSCAN-ELISA) [1]: 0.1; Binding of serum 2 to linear peptide (PEPSCAN-ELISA) [1]: 0.1; Binding of serum 6 to linear peptide (PEPSCAN-ELISA) [1]: 0.1; Binding of serum 37 to linear peptide (PEPSCAN-ELISA) [1]: 0.6; Binding of serum 62 to linear peptide (PEPSCAN-ELISA) [1]: 0.4; Binding of serum London to linear peptide (PEPSCAN-ELISA) [1]: 0.5; Binding of serum SARS-green to linear peptide (PEPSCAN-ELISA) [1]: 0.3; Binding of serum SARS-yellow to linear peptide (PEPSCAN-ELISA) [1]: 0.5; Binding of Control Serum Blood-Bank to Looped peptides [4]: 0.8; Binding of Control serum Blood-bank to linear peptides [4]: 0.5; Binding of Control serum LUMC to linear peptides [4]: 0.5; Binding of Control serum LUMC to looped peptides [4]: 0.7
QLQNSMSGASADSTQ | 0.3 | 0.1 | 0.4 | 0.1 | 0.4 | 0.1 | 0.3 | 0.1 | 0.1 | 0.7 | 0.5 | 0.1 | 0.2 | Binding of serum 1a to linear peptides of protein N of SARS-CoV Urbani [1]: 0.2; Binding of serum 1b to linear peptides of protein N of SARS-CoV Urbani [1]: 0.1; Binding of serum 2 to linear peptides of protein N of SARS-CoV Urbani [1]: 0.2; Binding of serum 6 to linear peptides of protein N of SARS-CoV Urbani [1]: 0.1; Binding of serum 37 to linear peptides of protein N of SARS-CoV Urbani [1]: 0.7; Binding of serum 62 to linear peptides of protein N of SARS-CoV Urbani [1]: 0.5; Binding of serum London to linear peptides of protein N of SARS-CoV Urbani [1]: 0.6; Binding of serum SARS-green to linear peptides of protein N of SARS-CoV Urbani [1]: 0.3; Binding of serum SARS-yellow to linear peptides of protein N of SARS-CoV Urbani [1]: 0.6; Control Serum Blood-Bank Looped peptides [4]: 0.5; Control serum Blood-bank linear peptides [4]: 0.8; Control serum LUMC linear peptides [4]: 0.6; Control serum LUMC looped peptides [4]: 0.4

Reference: patent US20070128217A1 (priority 2003, published 2007)
